Results reported in patent US20250333745A1, “METHODS AND COMPOSITIONS FOR TREATMENT OF POLYCYSTIC KIDNEY DISEASE” (Regulus Therapeutics Inc., priority 2016, published 2025).

Experiments:
miR-17 family = assay: In vitro assays of tool compound against miR-17 family
Method: Previous studies using a research tool anti-miR-17 compound identified a role for miR-17 in PKD in two different models of PKD, the Pkd2-KO model (also known as the Pkhd1/cre; Pkd2^F/F model) and the Pcy model. The research tool modified oligonucleotide complementary to miR-17 was tested in mouse models of PKD. The anti-miR-17 compound was a fully phosphorothioated oligonucleotide 19 linked nucleosides in length (5′-CTGCACTGTAAGCACTTTG-3′; SEQ ID NO: 7), with DNA, 2′-MOE and S-cEt sugar moieties.

Viscosity = format: physicochemical; settings: approximately 150 mg/mL in water at 20° C.
Method: RG4326 has the following sequence and chemical modification pattern: ASGSCMAFCFUFUMUSGS where nucleosides followed by subscript “M” are 2′-O-methyl nucleosides, nucleosides followed by subscript “F” are 2′-fluoro nucleosides, nucleosides followed by subscript “S” are S-cEt nucleosides, each cytosine is a non-methylated cytosine and all linkages are phosphorothioate linkages. […] Additionally, the viscosity of RG4326 was determined to be 6 cP at a concentration of approximately 150 mg/mL (in water at 20° C.), thus RG4326 in solution is suitable for administration by subcutaneous injection.

[1] = Tissue accumulation in kidney and liver (kidney-to-liver ratio); format: in vivo, mouse; settings: single dose 30 mg/kg, seven days
Method: Pharmacokinetic properties and tissue distribution of select compounds were assessed in wild type C57BL6 mice and JCK mice (an experimental model of PKD). Compound was administered to wild type mouse at a dose of 0.3, 3, or 30 mg/kg, or to JCK mice at a dose of 3, 30, or 100 mg/kg. After seven days, mice were sacrificed. Kidney and liver tissues were collected. Concentration of anti-miR-17 compound was measured in liver and kidney. Compounds that accumulate to a greater level in kidney, relative to liver (i.e., have a higher kidney-to-liver ratio) were preferred.
The miPSA was used to assess the potency of each compound, measured by the displacement score, in wild type and JCK mice. Tissue accumulation of anti-miR-17 compound was measured by extraction of compound using liquid-liquid extraction (LLE) and/or solid-phase extraction (SPE), followed by analysis of the identity and concentration of compound using ion-pairing-reversed-phase high performance liquid chromatography coupled with time-of-flight mass spectrometry (IP—RP-HPLC-TOF).
Wild type mice were administered a single dose of 3 mg/kg for the miPSA analysis, and a single dose of 30 mg/kg for the tissue accumulation analysis. JCK mice were administered a single dose of 30 mg/kg for both the miPSA and tissue accumulation analyses. Kidney tissue was collected seven days following the administration of anti-miR-17 compound. […] A higher kidney-to-liver ratio is generally preferred for a disease where the primary site of action is the kidney.

[2] = Metabolic stability in liver homogenate, summary over species; format: in vitro ADME; settings: mouse, monkey or human liver homogenate
Method: Due to their reduced capacity for serum protein binding, which is a property that drives oligonucleotide distribution in the body, short oligonucleotides are not necessarily expected to have pharmacokinetic properties that make them suitable for use as drugs. RG4326 was incubated in mouse, monkey or human liver homogenate. The identity and concentration of RG4326 and metabolites was determined after a 24-hour incubation. RG4326 and metabolites were extracted using liquid-liquid extraction (LLE) and/or solid-phase extraction (SPE), which were then analyzed for identity and concentration using ion-pairing-reversed-phase high performance liquid chromatography coupled with time-of-flight mass spectrometry (IP—RP-HPLC-TOF).

[3] = Pharmacokinetic profile after three 10 mg/kg subcutaneous injections in C57BL6 and JCK mice; format: in vivo, mouse; settings: three 10 mg/kg s.c.; for % Parent: after 21 days
Method: The pharmacokinetic behavior of RG4326 was further characterized in wild type (C57B16) mice and PKD (JCK) mice. Groups of 5 mice each received three 10 mg/kg subcutaneous injections on each of three consecutive days. At one, four, seven, 14 and 21 days after the third and final injection, mice were sacrificed and plasma, kidney and liver samples were collected. For measurement of RG4326, RG4326 was extracted using liquid-liquid extraction (LLE) and/or solid-phase extraction (SPE), which was then analyzed for identity and concentration using ion-pairing-reversed-phase high performance liquid chromatography coupled with time-of-flight mass spectrometry (IP—RP-HPLC-TOF).

In the case of “5′-CTGCACTGTAAGCACTTTG-3′ (all phosphorothioate, sugars by position and methylation of C not given here; DNA, 2'-MOE and S-cEt sugars) [Tool anti-miR-17, reference compound]”, the “inhibition of miR-17 family members (in words)” value (miR-17 family) is reported as “hybridizes to and inhibits all members of the miR-17 family”.
In the case of `COC1C(OP(=O)(S)OC[C@H]2O[C@@H](n3cnc4c(N)ncnc43)C(F)C2OP(=O)(S)OC[C@H]2O[C@@H](n3ccc(N)nc3=O)C(F)C2OP(=O)(S)OC[C@H]2O[C@@H](n3ccc(=O)[nH]c3=O)C(F)C2OP(=O)(S)OC[C@H]2O[C@@H](n3ccc(=O)[nH]c3=O)C(OC)C2OP(=O)(S)OC[C@]23O[C@@H](n4ccc(=O)[nH]c4=O)C(O[C@H]2C)C3OP(=O)(S)OC[C@]23O[C@@H](n4cnc5c(=O)[nH]c(N)nc54)C(O[C@H]2C)C3O)[C@@H](COP(=O)(S)OC2C3O[C@@H](C)[C@]2(COP(=O)(S)OC2C4O[C@@H](C)[C@]2(CO)O[C@H]4n2cnc4c(N)ncnc42)O[C@H]3n2cnc3c(=O)[nH]c(N)nc32)O[C@H]1n1ccc(N)nc1=O` (stereo in doubt) [RG4326, ASGSCMAFCFUFUMUSGS], the viscosity (Viscosity) is reported as 6 cP, the “Kidney-to-Liver Ratio PKD Mice” value ([1]; JCK mice) is reported as 6.0 and the “Kidney-to-Liver Ratio Wild Type Mice” value ([1]; wild type mice) is reported as 9.8. The “parent compound remaining intact after the 24-hour incubation” value [2] was “over 95%”, the AUC0-21 days ([3]; Normal C57BL6 mice, Kidney) was 282 µg·days/g and the C24 h ([3]; Normal C57BL6 mice, Kidney) was 61.4 µg/g. For the same compound, the “% Parent” value ([3]; Normal C57BL6 mice, Kidney) was >90%, the AUC0-21 days ([3]; Normal C57BL6 mice, Liver) was 17 µg·days/g and the C24 h ([3]; Normal C57BL6 mice, Liver) was 1.6 µg/g. The “% Parent” value ([3]; Normal C57BL6 mice, Liver) was >90%, the “K/L Ratio (AUC)” value ([3]; Normal C57BL6 mice) was 17 and the “K/L Ratio (C24 h)” value ([3]; Normal C57BL6 mice) was 38. The AUC0-21 days ([3]; PKD JCK mice, Kidney) was 497 µg·days/g, the C24 h ([3]; PKD JCK mice, Kidney) was 66.5 µg/g and the “% Parent” value ([3]; PKD JCK mice, Kidney) was >90%. For the same compound, the AUC0-21 days ([3]; PKD JCK mice, Liver) was 37 µg·days/g, the C24 h ([3]; PKD JCK mice, Liver) was 5.9 µg/g and the “% Parent” value ([3]; PKD JCK mice, Liver) was >90%. For the same compound, the “K/L Ratio (AUC)” value ([3]; PKD JCK mice) was 13, the “K/L Ratio (C24 h)” value ([3]; PKD JCK mice) was 11 and the “parent compound remaining after 21 days” value ([3]; both plasma and tissues, C57B16 and JCK mice) was “over 90%”.
